Legend:
[1] = biological target: T1, UDP-N-acetylglucosamine pyrophosphorylase (AfUAP1) (Aspergillus fumigatus, UniProt Q4WAR0)
T1 construct: gene AFUA_7G02180
T1 sequence (Q4WAR0 1-509): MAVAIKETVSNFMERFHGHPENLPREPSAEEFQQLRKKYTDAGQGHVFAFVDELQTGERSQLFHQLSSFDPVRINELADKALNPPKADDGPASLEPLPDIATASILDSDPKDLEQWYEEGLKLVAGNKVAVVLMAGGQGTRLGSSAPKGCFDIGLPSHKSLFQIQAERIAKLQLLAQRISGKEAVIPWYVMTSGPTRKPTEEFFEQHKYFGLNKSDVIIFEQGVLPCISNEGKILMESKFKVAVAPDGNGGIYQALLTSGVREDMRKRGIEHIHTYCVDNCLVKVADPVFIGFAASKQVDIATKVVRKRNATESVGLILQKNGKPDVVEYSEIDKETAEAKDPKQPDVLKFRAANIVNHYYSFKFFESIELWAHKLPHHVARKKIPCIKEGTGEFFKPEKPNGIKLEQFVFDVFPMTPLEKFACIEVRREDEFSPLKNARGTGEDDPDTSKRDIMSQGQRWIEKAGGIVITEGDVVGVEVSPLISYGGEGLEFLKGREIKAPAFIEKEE

[2] = biological target: T1, UDP-N-acetylglucosamine pyrophosphorylase (AfUAP1); assay: HPAEC assay of UDP-GlcNAc formation by recombinant enzyme; type: biochemical

IC50 [2] [µM]	Compound	X-ray crystal structure, 1.75 Å (PPi and Mg2+ soak) [1]
–	O=P(O)(O)OP(=O)(O)O [pyrophosphate]	is tethered by interactions with positively charged residues, such as Arg141, Lys437 and Lys148
115 ± 40	O=c1ccn([C@@H]2O[C@H](COP(=O)(O)CP(=O)(O)OP(=O)(O)O)[C@@H](O)[C@H]2O)c(=O)[nH]1 [compound 5, meUTP]	–
